From patent US20230002372A1, “AZAINDOLE CARBOXAMIDE COMPOUNDS FOR THE TREATMENT OF MYCOBACTERIAL INFECTIONS” (THE GLOBAL ALLIANCE FOR TB DRUG DEVELOPMENT, INC., priority 2019, published 2023)
≈ marks a conversion by molar mass, not a printed value.

Test system: M tb H37Rv
Assay: MIC determination against M tb H37Rv (green fluorescent protein reporter assay; MIC-MABA)
Type: cell-based, Mycobacterium tuberculosis
Conditions: M. tb H37Rv; 7H9 broth; 10 days exposure; MIC = lowest concentration inhibiting fluorescence by 90%

Structure (SMILES) | M. TB H37Rv: MIC-MABA: MIC [µg/mL]
Cc1cc(F)c2cc(C(=O)N[C@H]3C[C@H]4C[C@@H]([C@@H]3C)C4(C)C)[nH]c2n1 [MPL-043, 4-fluoro-6-methyl-N-[(1S,2S,3S,5R)-2,6,6-trimethylnorpinan-3-yl]-1H-pyrrolo[2,3-b]pyridine-2-carboxamide] | 0.17

Same assay, conditions: Mycobacterium tuberculosis, H37RV, 240 h, read-out: M. TB H37Rv: MIC-MABA: MIC, M. tb H37Rv; 7H9 broth; 10 days exposure; MIC = lowest concentration inhibiting fluorescence by 90%

Structure (SMILES) | MIC [µg/mL]
Cc1nc2[nH]c(C(=O)N[C@@H]3CCC[Si](C)(C)CC3)cc2c(F)c1F (single isomer, unassigned) [MPL-282A] | 0.051 (≈ 0.145 µM)
Cc1nc2[nH]c(C(=O)N[C@H]3CCC[Si](C)(C)CC3)cc2c(F)c1F (single isomer, unassigned) [MPL-282B] | 0.197 (≈ 0.56 µM)
Cc1nc2[nH]c(C(=O)N[C@@H]3CC[Si](C)(C)C3)cc2c(F)c1F (single isomer, unassigned) [MPL-295A] | 0.22 (≈ 0.68 µM)
Cc1nc2[nH]c(C(=O)N[C@H]3CCC[Si](C)(C)CC3)cc2c(F)c1Cl (single isomer, unassigned) [MPL-316B] | 0.25 (≈ 0.679 µM)
Cc1cc(Cl)c2cc(C(=O)N[C@@H]3CC[Si](C)(C)C3)[nH]c2n1 (single isomer, unassigned) [MPL-401A] | 0.319 (≈ 0.991 µM)
Cc1cc(Cl)c2cc(C(=O)N[C@H]3CC[Si](C)(C)C3)[nH]c2n1 (single isomer, unassigned) [MPL-401B] | 0.007 (≈ 0.0217 µM)
O=C(NC1CCC2(CCC2)CC1)c1cc2c(Cl)ccnc2[nH]1 [MPL-001, 4-chloro-N-spiro[3.5]nonan-7-yl-1H-pyrrolo[2,3-b]pyridine-2-carboxamide] | 0.03 (≈ 0.0944 µM)
O=C(NC1CCC2(CCC2)CC1)c1cc2c(F)ccnc2[nH]1 [MPL-002, 4-fluoro-N-spiro[3.5]nonan-7-yl-1H-pyrrolo[2,3-b]pyridine-2-carboxamide] | 0.056 (≈ 0.186 µM)
CC1(C)CCC(NC(=O)c2cc3c(Cl)cncc3[nH]2)CC1 [MPL-003, 4-chloro-N-(4,4-dimethylcyclohexyl)-1H-pyrrolo[2,3-c]pyridine-2-carboxamide] | 0.01 (≈ 0.0327 µM)
C[C@@H]1[C@@H](NC(=O)c2cc3c(Cl)cncc3[nH]2)C[C@H]2C[C@@H]1C2(C)C [MPL-006, 4-chloro-N-[(1S,2S,3S,5R)-2,6,6-trimethylnorpinan-3-yl]-1H-pyrrolo[2,3-c]Pyridine-2-carboxamide] | 0.3 (≈ 0.904 µM)
CC1(C)CCC(NC(=O)c2cc3c(Br)ccnc3[nH]2)CC1 [MPL-007, 4-bromo-N-(4,4-dimethylcyclohexyl)-1H-pyrrolo[2,3-b]pyridine-2-carboxamide] | 0.12 (≈ 0.343 µM)
C[C@@H]1[C@@H](NC(=O)c2cc3c(C#N)ccnc3[nH]2)C[C@H]2C[C@@H]1C2(C)C [MPL-013, 4-cyano-N-[(1S,2S,3S,5R)-2,6,6-trimethylnorpinan-3-yl]-1H-pyrrolo[2,3-b]pyridine-2-carboxamide] | 1.2 (≈ 3.72 µM)
COc1ccnc2[nH]c(C(=O)N[C@H]3C[C@H]4C[C@@H]([C@@H]3C)C4(C)C)cc12 [MPL-014, 4-methoxy-N-[(1S,2S,3S,5R)-2,6,6-trimethylnorpinan-3-yl]-1H-pyrrolo[2,3-b]pyridine-2-carboxamide] | 5.4 (≈ 16.5 µM)
C[C@@H]1[C@@H](NC(=O)c2cc3c(C(F)(F)F)ccnc3[nH]2)C[C@H]2C[C@@H]1C2(C)C [MPL-015, 4-(trifluoromethyl)-N-[(1S,2S,3S,5R)-2,6,6-trimethylnorpinan-3-yl]-1H-pyrrolo[2,3-b]pyridine-2-carboxamide] | 0.044 (≈ 0.12 µM)
Cc1ccnc2[nH]c(C(=O)N[C@H]3C[C@H]4C[C@@H]([C@@H]3C)C4(C)C)cc12 [MPL-016, 4-methyl-N-[(1S,2S,3S,5R)-2,6,6-trimethylnorpinan-3-yl]-1H-pyrrolo[2,3-b]pyridine-2-carboxamide] | 0.38 (≈ 1.22 µM)
CC1(C)CCC(NC(=O)c2cc3c(C4CC4)ccnc3[nH]2)CC1 [MPL-017, 4-cyclopropyl-N-(4,4-dimethylcyclohexyl)-1H-pyrrolo[2,3-b]pyridine-2-carboxamide] | 0.72 (≈ 2.31 µM)
Cc1cc(C)c2cc(C(=O)NC3CCC(C)(C)CC3)[nH]c2n1 [MPL-019, N-(4,4-dimethylcyclohexyl)-4,6-dimethyl-1H-pyrrolo[2,3-b]pyridine-2-carboxamide] | 9 (≈ 30.1 µM)

Structure (SMILES) | MIC [µg/mL]
CNc1ccnc2[nH]c(C(=O)N[C@H]3C[C@H]4C[C@@H]([C@@H]3C)C4(C)C)cc12 [MPL-023, 4-(methylamino)-N-[(1S,2S,3S,5R)-2,6,6-trimethylnorpinan-3-yl]-1H-pyrrolo[2,3-b]pyridine-2-carboxamide] | 11 (≈ 33.7 µM)
O=C(NC1CCCCCCC1)c1cc2c(F)ccnc2[nH]1 [MPL-027, N-cyclooctyl-4-fluoro-1H-pyrrolo[2,3-b]pyridine-2-carboxamide] | 0.61 (≈ 2.11 µM)
Cc1ccnc2[nH]c(C(=O)NC3CCCCCCC3)cc12 [MPL-031, N-cyclooctyl-4-methyl-1H-pyrrolo[2,3-b]pyridine-2-carboxamide] | 0.25 (≈ 0.876 µM)
O=C(NC1CCCCCCC1)c1cc2c(Cl)ccnc2[nH]1 [MPL-033, 4-chloro-N-cyclooctyl-1H-pyrrolo[2,3-b]pyridine-2-carboxamide] | 0.038 (≈ 0.124 µM)
O=C(NC1CCCCCCC1)c1cc2c(Br)ccnc2[nH]1 [MPL-035, 4-bromo-N-cyclooctyl-1H-pyrrolo[2,3-b]pyridine-2-carboxamide] | 0.14 (≈ 0.4 µM)
N#Cc1ccnc2[nH]c(C(=O)NC3CCCCCCC3)cc12 [MPL-036, 4-cyano-N-cyclooctyl-1H-pyrrolo[2,3-b]pyridine-2-carboxamide] | 0.08 (≈ 0.27 µM)
O=C(NC1CCCCCCC1)c1cc2c(C(F)(F)F)ccnc2[nH]1 [MPL-037, N-cyclooctyl-4-(trifluoromethyl)-1H-pyrrolo[2,3-b]pyridine-2-carboxamide] | 0.014 (≈ 0.0413 µM)
COc1ccnc2[nH]c(C(=O)NC3CCCCCCC3)cc12 [MPL-038, N-cyclooctyl-4-methoxy-1H-pyrrolo[2,3-b]pyridine-2-carboxamide] | 6.2 (≈ 20.6 µM)
O=C(NC1CCCCCCC1)c1cc2c(C3CC3)ccnc2[nH]1 [MPL-039, N-cyclooctyl-4-cyclopropyl-1H-pyrrolo[2,3-b]pyridine-2-carboxamide] | 0.39 (≈ 1.25 µM)
CNc1ccnc2[nH]c(C(=O)NC3CCCCCCC3)cc12 [MPL-040, N-cyclooctyl-4-(methylamino)-1H-pyrrolo[2,3-b]pyridine-2-carboxamide] | 6.2 (≈ 20.6 µM)
Cc1cc(C)c2cc(C(=O)NC3CCCCCCC3)[nH]c2n1 [MPL-041, N-cyclooctyl-4,6-dimethyl-1H-pyrrolo[2,3-b]pyridine-2-carboxamide] | 8.5 (≈ 28.4 µM)
Cc1cc(F)c2cc(C(=O)N[C@H]3C[C@H]4C[C@@H]([C@@H]3C)C4(C)C)[nH]c2n1 [MPL-043, 4-fluoro-6-methyl-N-[(1S,2S,3S,5R)-2,6,6-trimethylnorpinan-3-yl]-1H-pyrrolo[2,3-b]pyridine-2-carboxamide] | 0.14 (≈ 0.425 µM)
C[C@@H]1[C@@H](NC(=O)c2cc3c(F)c(F)cnc3[nH]2)C[C@H]2C[C@@H]1C2(C)C [MPL-062, 4,5-difluoro-N-[(1S,2S,3S,5R)-2,6,6-trimethylnorpinan-3-yl]-1H-pyrrolo[2,3-b]pyridine-2-carboxamide] | 0.19 (≈ 0.57 µM)
CC1(C)CCC(NC(=O)c2cc3c(F)c(F)cnc3[nH]2)CC1 [MPL-063, N-(4,4-dimethylcyclohexyl)-4,5-difluoro-1H-pyrrolo[2,3-b]pyridine-2-carboxamide] | 0.14 (≈ 0.456 µM)
C[C@@H]1[C@@H](NC(=O)c2cc3cc(Cl)c(F)nc3[nH]2)C[C@H]2C[C@@H]1C2(C)C [MPL-064, 5-chloro-6-fluoro-N-[(1S,2S,3S,5R)-2,6,6-trimethylnorpinan-3-yl]-1H-pyrrolo[2,3-b]pyridine-2-carboxamide] | 0.16 (≈ 0.457 µM)
O=C(NC1CCCCCCC1)c1cc2cc(Cl)c(F)nc2[nH]1 [MPL-065a, 5-chloro-N-cyclooctyl-6-fluoro-1H-pyrrolo[2,3-b]pyridine-2-carboxamide] | 0.013 (≈ 0.0401 µM)
